Data on six compounds can be found in patent US8178349B2, “Homogeneous neural precursor cells” (Burnham Institute For Medical Research, priority 2005, dated 2012).

Holding throughout (format): cell-based, human
Assay [1] concerns glutamate receptors of differentiated hES-NPCs cultures. Put plainly: Calcium imaging. The note with it: 4-5 week old cultures; NMDA followed by glutamate, 37° C. As to the method: Calcium Imaging. Measurement of intracellular free Ca2+ ([Ca2+]i) in differentiated HNSC cultures was performed using Fura-2-AM or Fluo-3-AM as described earlier (Tenneti et al., J Neurochem 71: 946-59, 1998) with the minor modification. Briefly, ES derived hNPC cells were washed twice with recording medium containing 150 mM NaCl, 3 mM KCl, 2 mM CaCl2, 5 mM glucose, 10 μM glycine, and 10 mM HEPES (pH 7.4) and incubated generally at 37° C. in recording medium containing 30 nM Pluronic F-127 and 5 μM Fluo-3 AM for 30 minor 10 μMFura-2-AM for 60 min (acetoxymethyl esters; Molecular Probes). Cultures were then washed three times with recording medium, followed by settlement at 37° C. for at least 30 min. Cells were invariably used within 1 hr after these procedures for observation. During the experiments, cells were kept in a perfusion chamber on the microscope stage at room temperature (Fluo-3) or 37° C. (Fura-2 experiments). Imaging was done using a Sutter DG-4 fast wavelength switcher coupled to a Zeiss Axiovert microscope with a 20×, 0.5 NA, objective. […] Changes in fluorescence intensity were calculated by dividing the measured fluorescence intensity (F; ratio of 340/380 nm for Fura-2) by the measured average baseline fluorescence intensity (F/F0) Excitation was achieved using standard FITC or Fura-2 filter sets (Chroma technologies).

Assay [2] concerns NMDA-type glutamate receptors of differentiated hES-NPCs. Put plainly: Whole-cell patch-clamp recording of ligand-gated currents. The note with it: for effect on glutamate-evoked currents: voltage clamp, holding potential −60 mV, after 2 to 2.5 weeks in culture, 100 μM D-APV.
Assay [3] deals with Voltage-gated Na+ currents of differentiated hES-NPCs.
Another assay relates to differentiated hES-NPCs. Put plainly: Whole-cell patch-clamp recording of GABA-evoked currents. The note with it: 2.5 weeks in culture. A general note: Patch clamp records ionic current or voltage across a cell membrane.
A further assay deals with hESCs. Nature of the assay: Spheroid bodies formation in suspension medium. The note with it: addition to the suspension medium (2 mM). The protocol: Spheroid bodies formation: the small clusters (10-100 cells) of hESCs were grown in polypropylene dishes (Ted Pella) in Suspension Medium (1:1 ratio of DMEM/F12:neurobasal medium with N2+B27 supplements, 20 ng/ml insulin 20 ng/ml bFGF, 20 ng/ml EGF and 2 mM N-acetyl cysteine (NAC)). The spheres were grown for 4-6 days, with a change in medium every alternate day.

Regarding `CN[C@H](CC(=O)O)C(=O)O` [NMDA, N-methyl-D-aspartate], the “[Ca2+] response of fura-2-loaded cells” value in assay [1] is given as “Robust responses”. On to `N[C@@H](CCC(=O)O)C(=O)O` [glutamate], for which, in assay [2] (after 2 weeks in culture), the “cells that manifest agonist-evoked currents” value is reported as “approximately 30%”. The “[Ca2+] response of fura-2-loaded cells” value in assay [1] is listed as “Robust responses”. Turning to `NC1=N[C@H](O)[C@H]2[C@H]3O[C@]4(O)O[C@@H]([C@@H](O)[C@@]2(N1)[C@@H]4O)[C@]3(O)CO` [TTX, tetrodotoxin], in assay [3], the “effect on fast Na+ currents” value is “reversibly blocked”. For the compound `N[C@H](CCCP(=O)(O)O)C(=O)O` [D-APV, D-(−)-2 amino-5-phosphonovaleric acid], the results for the “effect on glutamate-evoked currents” value in assay [2] and in assay [2] (listed as APV) were “partially blocked” and “partially inhibited”, respectively. With `NCCCC(=O)O` [GABA, γ-aminobutyric acid], the “cells with agonist-evoked currents (cells of cells recorded)” value in the assay on differentiated hES-NPCs is 4 of 29. Take `CC(=O)N[C@@H](CS)C(=O)O` [NAC, N-acetyl cysteine]: the “morphology of spheroid bodies” value with hESCs is on record as “healthier morphology of spheroid bodies”.
